Laboratory results reported in patent publication US20260234165A1, “MACROCYCLIC COMPOUNDS, PREPARATION METHOD THEREFOR, AND USE THEREOF” (GENFLEET THERAPEUTICS (SHANGHAI) INC., priority 2004, published 2026).
Like-named read-outs stand apart in the source and are kept apart here.

Legend:
Format in all cases: cell-based, human
[1] = test system: p-ERK in NCI-H441 cells (KRAS G12V mutation); assay: Cell p-ERK assay (HTRF) in NCI-H441 cells; details: NCI-H441 cells, 3 h compound incubation, HTRF p-ERK T202/Y204, read-out: H441 p-ERK IC50
How it was run: (§1)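 AsPC-1 (10000/well) or NCI-H441 (20000/well) cells were seeded in RPMI-1640 with 10% FBS, grown overnight, then exposed to 3.16-fold compound dilutions (0.1% DMSO) for 3 h at 37 °C. Lysates were read for phospho-ERK T202/Y204 by HTRF; IC50 came from four-parameter fits of inhibition versus DMSO and blank wells.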

[2] = test system: p-ERK in AsPC-1 cells (KRAS G12D mutation); assay: Cell p-ERK assay (HTRF) in AsPC-1 cells; details: AsPC-1 cells, 3 h compound incubation, HTRF p-ERK T202/Y204, read-out: AsPC-1 p-ERK IC50
How it was run: as §1

[3] = test system: AsPC-1 cells (KRAS G12D mutation); assay: 3D cell proliferation assay (CellTiter Glo-3D), AsPC-1; details: medium with 2% FBS, read-out: AsPC-1 AP IC50
How it was run: (§2)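 Proliferation of the KRAS-mutant lines NCI-H441 and AsPC-1 is measured over 5 days of compound treatment in medium with 2% FBS. Inhibition is computed from luminescence relative to DMSO and cell-free controls, and IC50 comes from a four-parameter curve.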

NCI-H441 cells = assay: 3D cell proliferation assay (CellTiter Glo-3D), NCI-H441; details: medium with 2% FBS, read-out: H441 AP IC50
How it was run: as §2

[4] = 3D cell proliferation (CellTiter Glo-3D)
[5] = Homo sapiens, ASPC1, 3D cell proliferation (CellTiter Glo-3D)
[6] = Homo sapiens, NCI-H441, 3D cell proliferation (CellTiter Glo-3D)

`CCn1c(-c2cc(C#C[C@@H]3CCCN3C)cnc2[C@H](C)OC)c2c3cc(ccc31)-c1csc(n1)C[C@H](NC(=O)[C@H]1[C@H](C)[C@@H]1C)C(=O)N1CCC[C@H](N1)C(=O)OCC(C)(C)C2` (atropisomer, axis not shown; (Ra)) [Compound Z598, (1r,2R,3S)—N-((6^3S,4S,Z)—(Ra)-1^1-ethyl-12-(2-((S)-1-methoxyethyl)-5-(((S)-1-methylpyrrolidin-2-yl)ethynyl)pyridin-3-yl)-10,10-dimethyl-5,7-dioxo-6^1,6^2,6^3,6^4,6^5,6^6-hexahydro-1^1H-8-oxa-2(4,2)-thiazola-1(5,3)-indola-6(1,3)-pyridazinacycloundecaphane-4-yl)-2,3-dimethylcyclopropane-1-carboxamide] showed an IC50 [1] of 0.58 nM, an IC50 [2] of 0.8 nM and an IC50 [3, 4] of 0.62 nM. For the same molecule, the IC50 (NCI-H441 cells; [4]) was 0.65 nM.
Work on `CCn1c(-c2cc(C#C[C@H]3CCCN3C)cnc2[C@H](C)OC)c2c3cc(ccc31)-c1csc(n1)C[C@H](NC(=O)[C@H]1[C@H](C)[C@@H]1C)C(=O)N1CCC[C@H](N1)C(=O)OCC(C)(C)C2` (atropisomer, axis not shown; (Ra)) [Compound Z599, (1r,2S,3R)—N-((6^3S,4S,Z)—(Ra)-1^2-(5-(((R)-1-methylpyrrolidin-2-yl)ethynyl)-2-((S)-1-methoxyethyl)pyridin-3-yl)-1^1-ethyl-10,10-dimethyl-5,7-dioxo-6^1,6^2,6^3,6^4,6^5,6^6-hexahydro-1^1H-8-oxa-2(4,2)-thiazola-1(5,3)-indola-6(1,3)-pyridazinacycloundecaphane-4-yl)-2,3-dimethylcyclopropane-1-carboxamide] yielded an IC50 ([1]; Homo sapiens, NCI-H441, 3 h) of 0.7 nM, an IC50 ([2]; Homo sapiens, ASPC1, 3 h) of 1.05 nM and an IC50 [3, 5] of 2.15 nM. The IC50 (NCI-H441 cells; [6]) was 1.17 nM.
`CCn1c(-c2cc(OCCN3CC[S+]([O-])CC3)cnc2[C@H](C)OC)c2c3cc(ccc31)-c1csc(n1)C[C@H](NC(=O)[C@H]1[C@H](C)[C@@H]1C)C(=O)N1CCC[C@H](N1)C(=O)OCC(C)(C)C2` (atropisomer, axis not shown; (Ra)) [Compound Z600] showed an IC50 [1] of 0.51 nM, an IC50 ([2]; Homo sapiens, ASPC1, 3 h) of 0.51 nM and an IC50 [3, 5] of 0.66 nM. It also gave an IC50 (NCI-H441 cells; [4]) of 0.36 nM.
For `CCn1c(-c2cc(OCCN3CCS(=O)(=NC)CC3)cnc2[C@H](C)OC)c2c3cc(ccc31)-c1csc(n1)C[C@H](NC(=O)[C@H]1[C@H](C)[C@@H]1C)C(=O)N1CCC[C@H](N1)C(=O)OCC(C)(C)C2` (atropisomer, axis not shown; (Ra)) [Compound Z601, (1r,2R,3S)—N-((6^3S,4S,Z)-1^1-ethyl-1^2-(Ra)-(2-((S)-1-methoxyethyl)-5-(2-(1-(methylimino)-1-oxido-1λ^6-thiomorpholino)ethoxy)pyridin-3-yl)-10-10-dimethyl-5,7-dioxo-6^1,6^2,6^3,6^4,6^5,6^6-hexahydro-1^1H-8-oxa-2(4,2)-thiazola-1(5,3)-indola-6(1,3)-pyridazinacycloundecaphane-4-yl)-2,3-dimethylcyclopropane-1-carboxamide], the IC50 ([1]; Homo sapiens, NCI-H441, 3 h) was 0.62 nM, the IC50 ([2]; Homo sapiens, ASPC1, 3 h) was 0.49 nM and the IC50 [3, 5] was 0.58 nM. The IC50 (NCI-H441 cells; [6]) was 0.36 nM.
`CO[C@@H](C)c1ncc(OCCN2CCS(=O)(=O)CC2)cc1-c1c2c3cc(ccc3n1C(C)C)-c1csc(n1)C[C@H](NC(=O)[C@H]1C[C@@H]1C)C(=O)N1CCC[C@H](N1)C(=O)OCC(C)(C)C2` (atropisomer, axis not shown; (Ra)) [Compound Z603, (1S,2S)—N-((6^3S,4S,Z)—(Ra)-1^2-(5-(2-(1,l-dioxidothiomorpholino)ethoxy)2-((S)-1-methoxyethyl)pyridin-3-yl)-1^1-isopropyl-10,10-dimethyl-5,7-dioxo-6^1,6^2,6^3,6^4,6^5,6^6-hexahydro-1^1H-8-oxa-2(4,2)-thiazola-1(5,3)-indola-6(1,3)-pyridazinacycloundecaphane-4-yl)-2-methylcyclopropane-1-carboxamide] gave an IC50 ([1]; Homo sapiens, NCI-H441, 3 h) of 0.22 nM, an IC50 ([2]; Homo sapiens, ASPC1, 3 h) of 0.6 nM and an IC50 [3, 5] of 0.89 nM. It also gave an IC50 (NCI-H441 cells; [6]) of 0.31 nM.
